Legend:
Format in all cases: functional
[1] = tested on: HT-29; test: Cytotoxicity against human HT-29 cells assessed as cell growth at 10 uM after 24 hrs by SRB assay; conditions: HT-29, 24 h, read-out: Activity
[2] = Cytotoxicity against human OVCAR4 cells assessed as cell growth at 10 uM after 24 hrs by SRB assay; conditions: OVCAR-4, 24 h, read-out: Activity
[3] = Cytotoxicity against human LOXIMVI cells assessed as cell growth at 10 uM after 24 hrs by SRB assay; conditions: LOX IMVI, read-out: Activity
[4] = Cytotoxicity against human OVCAR8 cells assessed as cell growth at 10 uM after 24 hrs by SRB assay; conditions: OVCAR-8, 24 h, read-out: Activity
[5] = Cytotoxicity against human MOLT4 cells assessed as cell growth at 10 uM after 24 hrs by SRB assay; conditions: MOLT-4, 24 h, read-out: Activity
[6] = tested on: MDA-MB-435; test: Cytotoxicity against human MDA-MB-435 cells assessed as cell growth at 10 uM after 24 hrs by SRB assay; conditions: MDA-MB-435, 24 h, read-out: Activity
[7] = Cytotoxicity against human TK10 cells assessed as cell growth at 10 uM after 24 hrs by SRB assay; conditions: TK-10, 24 h, read-out: Activity
[8] = Cytotoxicity against human HCT15 cells assessed as cell growth at 10 uM after 24 hrs by SRB assay; conditions: HCT-15, 24 h, read-out: Activity
[9] = tested on: MDA-MB-231; test: Cytotoxicity against human MDA-MB-231 cells assessed as cell growth at 10 uM after 24 hrs by SRB assay; conditions: MDA-MB-231, 24 h, read-out: Activity
[10] = Cytotoxicity against human HCC2998 cells assessed as cell growth at 10 uM after 24 hrs by SRB assay; conditions: HCC 2998, 24 h, read-out: Activity
[11] = Cytotoxicity against human IGROV1 cells assessed as cell growth at 10 uM after 24 hrs by SRB assay; conditions: IGROV-1, 24 h, read-out: Activity
[12] = tested on: M14; test: Cytotoxicity against human M14 cells assessed as cell growth at 10 uM after 24 hrs by SRB assay; conditions: M14, 24 h, read-out: Activity
[13] = Cytotoxicity against human UACC257 cells assessed as cell growth at 10 uM after 24 hrs by SRB assay; conditions: UACC-257, 24 h, read-out: Activity
[14] = Cytotoxicity against human HCT116 cells assessed as cell growth at 10 uM after 24 hrs by SRB assay; conditions: HCT-116, 24 h, read-out: Activity
[15] = tested on: NCI-H522; test: Cytotoxicity against human NCI-H522 cells assessed as cell growth at 10 uM after 24 hrs by SRB assay; conditions: NCI-H522, 24 h, read-out: Activity
[16] = Cytotoxicity against human OVCAR3 cells assessed as cell growth at 10 uM after 24 hrs by SRB assay; conditions: OVCAR-3, 24 h, read-out: Activity
[17] = tested on: U-251; test: Cytotoxicity against human U251 cells assessed as cell growth at 10 uM after 24 hrs by SRB assay; conditions: U-251, 24 h, read-out: Activity
[18] = Cytotoxicity against human SF539 cells assessed as cell growth at 10 uM after 24 hrs by SRB assay; conditions: SF-539, 24 h, read-out: Activity
[19] = tested on: NCI-H226; test: Cytotoxicity against human NCI-H226 cells assessed as cell growth at 10 uM after 24 hrs by SRB assay; conditions: NCI-H226, 24 h, read-out: Activity
[20] = tested on: A498; test: Cytotoxicity against human A498 cells assessed as cell growth at 10 uM after 24 hrs by SRB assay; conditions: A498, 24 h, read-out: Activity
[21] = tested on: A549; test: Cytotoxicity against human A549 cells assessed as cell growth at 10 uM after 24 hrs by SRB assay; conditions: A549, 24 h, read-out: Activity
[22] = Cytotoxicity against human Caki1 cells assessed as cell growth at 10 uM after 24 hrs by SRB assay; conditions: CAKI-1, 24 h, read-out: Activity
[23] = tested on: K562; test: Cytotoxicity against human K562 cells assessed as cell growth at 10 uM after 24 hrs by SRB assay; conditions: K562, 24 h, read-out: Activity
[24] = tested on: MCF7; test: Cytotoxicity against human MCF7 cells assessed as cell growth at 10 uM after 24 hrs by SRB assay; conditions: MCF7, 24 h, read-out: Activity
[25] = Cytotoxicity against human UACC62 cells assessed as cell growth at 10 uM after 24 hrs by SRB assay; conditions: UACC-62, 24 h, read-out: Activity
[26] = Cytotoxicity against human NCI-ADR-RES cells assessed as cell growth at 10 uM after 24 hrs by SRB assay; conditions: read-out: Activity
[27] = tested on: SK-MEL-28; test: Cytotoxicity against human SK-MEL-28 cells assessed as cell growth at 10 uM after 24 hrs by SRB assay; conditions: SK-MEL-28, 24 h, read-out: Activity
[28] = tested on: NCI-H460; test: Cytotoxicity against human NCI-H460 cells assessed as cell growth at 10 uM after 24 hrs by SRB assay; conditions: NCI-H460, 24 h, read-out: Activity
[29] = tested on: 786-0; test: Cytotoxicity against human 786-0 cells assessed as cell growth at 10 uM after 24 hrs by SRB assay; conditions: 786-0, 24 h, read-out: Activity
[30] = tested on: KM12; test: Cytotoxicity against human KM12 cells assessed as cell growth at 10 uM after 24 hrs by SRB assay; conditions: KM12, 24 h, read-out: Activity
[31] = Cytotoxicity against human HOP62 cells assessed as cell growth at 10 uM after 24 hrs by SRB assay; conditions: HOP-62, 24 h, read-out: Activity
[32] = tested on: NCI-H23; test: Cytotoxicity against human NCI-H23 cells assessed as cell growth at 10 uM after 24 hrs by SRB assay; conditions: NCI-H23, 24 h, read-out: Activity
[33] = Cytotoxicity against human COLO205 cells assessed as cell growth at 10 uM after 24 hrs by SRB assay; conditions: COLO 205, 24 h, read-out: Activity
[34] = tested on: SK-MEL-2; test: Cytotoxicity against human SK-MEL-2 cells assessed as cell growth at 10 uM after 24 hrs by SRB assay; conditions: SK-MEL-2, 24 h, read-out: Activity
[35] = Cytotoxicity against human PC3 cells assessed as cell growth at 10 uM after 24 hrs by SRB assay; conditions: PC-3, 24 h, read-out: Activity
[36] = Cytotoxicity against human SW620 cells assessed as cell growth at 10 uM after 24 hrs by SRB assay; conditions: SW-620, 24 h, read-out: Activity
[37] = Cytotoxicity against human SNB19 cells assessed as cell growth at 10 uM after 24 hrs by SRB assay; conditions: SNB-19, 24 h, read-out: Activity
[38] = tested on: MDA-MB-468; test: Cytotoxicity against human MDA-MB-468 cells assessed as cell growth at 10 uM after 24 hrs by SRB assay; conditions: MDA-MB-468, 24 h, read-out: Activity

SMILES: COc1cc(OC)cc(C(=O)Nc2cc(-c3cccnc3)nc(NCCCN3CCOCC3)n2)c1
- growth at 10 µM [1]: 85.2%
- growth at 10 µM [2]: 117%
- growth at 10 µM [3]: 88.1%
- growth at 10 µM [4]: 91.8%
- growth at 10 µM [5]: 82.3%
- growth at 10 µM [6]: 102%
- growth at 10 µM [7]: 95.5%
- growth at 10 µM [8]: 90.6%
- growth at 10 µM [9]: 79.6%
- growth at 10 µM [10]: 123%
- growth at 10 µM [11]: 97.4%
- growth at 10 µM [12]: 104%
- growth at 10 µM [13]: 88.6%
- growth at 10 µM [14]: 89.2%
- growth at 10 µM [15]: 92%
- growth at 10 µM [16]: 105%
- growth at 10 µM [17]: 90.5%
- growth at 10 µM [18]: 91.1%
- growth at 10 µM [19]: 85.7%
- growth at 10 µM [20]: 83.3%
- growth at 10 µM [21]: 92.6%
- growth at 10 µM [22]: 101%
- growth at 10 µM [23]: 74.1%
- growth at 10 µM [24]: 88%
- growth at 10 µM [25]: 97.6%
- growth at 10 µM [26]: 95.4%
- growth at 10 µM [27]: 101%
- growth at 10 µM [28]: 95.3%
- growth at 10 µM [29]: 84%
- growth at 10 µM [30]: 104%
- growth at 10 µM [31]: 87.8%
- growth at 10 µM [32]: 91.7%
- growth at 10 µM [33]: 94.3%
- growth at 10 µM [34]: 84.1%
- growth at 10 µM [35]: 85.4%
- growth at 10 µM [36]: 99.9%
- growth at 10 µM [37]: 98.7%
- growth at 10 µM [38]: 83.2%
